Assay results reported in PubChem BioAssay (NCI).
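96-well plates; 48 h exposure; 5 concentrations. Endpoints by linear interpolation between flanking doses. Not reached: highest tested concentration assigned. The concentration for full growth arrest is given as TGI.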

Experiments:
Test in all cases: NCI-60 cell line screen, 48 h
[1] = test system: A498 renal
[2] = test system: A549 NSCLC
[3] = test system: BT-549 breast
[4] = test system: CCRF-CEM leukemia
[5] = test system: COLO 205 colon
[6] = test system: HS 578T breast
[7] = test system: IGROV1 ovarian
[8] = test system: K-562 leukemia
[9] = test system: LOX IMVI melanoma
[10] = test system: RPMI-8226 leukemia
[11] = test system: TK-10 renal

SMILES	TGI [1]	TGI [2]	TGI [3]	TGI [4]	TGI [5]	TGI [6]	TGI [7]	TGI [8]	TGI [9]	TGI [10]	TGI [11]
COC(=O)/C=C\C(C#N)(C#N)N=Cc1ccsc1	35.3 µM	33 µM	5.7 µM	0.93 µM	2.73 µM	> 68 µM	20.9 µM	1.62 µM	5.71 µM	3.28 µM	5.96 µM
O=C(Nc1nc(C23CC4CC(CC(C4)C2)C3)cs1)c1cc2cc([N+](=O)[O-])ccc2oc1=O	> 100 µM	> 100 µM	40.4 µM	> 100 µM	> 100 µM	67.9 µM	> 100 µM	> 100 µM	> 100 µM	> 100 µM	> 100 µM
O=C(NCc1ccccc1)c1c(O)c2ccccc2[nH]c1=O	> 100 µM	> 100 µM	> 100 µM	> 100 µM	> 100 µM	> 100 µM	> 100 µM	> 100 µM	> 100 µM	> 100 µM	> 100 µM
COC1=CC(=O)c2c(cc(COP(=O)(N(C)CCBr)N(C)CCBr)n2C)C1=O	6.12 µM	7.18 µM	3.94 µM	19 µM	2.56 µM	5.04 µM	19.2 µM	> 100 µM	3.31 µM	4.11 µM	2.01 µM
CSc1ccccc1P(CCP(c1ccccc1SC)c1ccccc1SC)c1ccccc1SC	> 81.7 µM	> 100 µM	> 100 µM	29.6 µM	> 53 µM	> 100 µM	> 100 µM	> 100 µM	> 100 µM	> 88.1 µM	> 100 µM
COC(=O)C[C@H](CCSC)NC(=O)C[C@H](CCSC)NC(=O)C[C@H](CCSC)NC(=O)OC(C)(C)C	46.4 µM	> 100 µM	> 100 µM	> 100 µM	> 100 µM	> 100 µM	> 100 µM	> 100 µM	> 100 µM	> 100 µM	42.2 µM
Nc1ccc(-c2nc3ccccc3s2)cc1	65 µM	63.2 µM	28.9 µM	54.4 µM	45.2 µM	> 84 µM	48.7 µM	58.4 µM	33 µM	61.1 µM	42.3 µM
